Assay results from US20050096297A1, “Antibacterial agents” (priority 2003, published 2005).
Values after ≈ are worked out from the molar mass of the structure shown.

Experiments:
Experiment in all cases: Test A antibacterial assay, MIC by microtitration
Format in all cases: cell-based
[1] = test system: E. coli EC-2549; details: Escherichia coli, EC2549; Gram Negative Bacteria; strain EC-2549; read-out: Minimum Inhibitory Concentrations E. coli EC-2549
Experimental: (§1) Test A—Antibacterial Assays
(§2) The compounds of the present invention were tested against an assortment of Gram-negative and Gram-positive organisms using standard microtitration techniques (Cohen et. al., Antimicrob., 1985;28:766; Heifetz, et. al., Antimicrob., 1974;6:124).

[2] = test system: H. influenzae HI-3542; details: Haemophilus influenzae, HI3542; Gram Negative Bacteria; strain HI-3542; read-out: Minimum Inhibitory Concentrations H. influenzae HI-3542
Experimental: as §1, §2

[3] = test system: M. catarrhalis BC-3531; details: Moraxella catarrhalis, BC3531; Gram Negative Bacteria; strain BC-3531; read-out: Minimum Inhibitory Concentrations M. catarrhalis BC-3531
Experimental: as §1, §2

[4] = test system: E. faecalis MGH-2; details: Enterococcus faecalis, MGH2; Gram Positive Bacteria; strain MGH-2; read-out: Minimum Inhibitory Concentrations E. faecalis MGH-2
Experimental: as §1, §2

[5] = test system: S pyogenes C203; details: Gram Positive Bacteria; strain C203; read-out: Minimum Inhibitory Concentrations S pyogenes C203
Experimental: as §1, §2

[6] = test system: S. aureus UC-76; details: Staphylococcus aureus, UC76; Gram Positive Bacteria; strain UC-76; read-out: Minimum Inhibitory Concentrations S. aureus UC-76
Experimental: as §1, §2

Row | Structure (SMILES) | MIC [1] [µg/mL] | MIC [2] [µg/mL] | MIC [3] [µg/mL] | MIC [4] [µg/mL] | MIC [5] [µg/mL] | MIC [6] [µg/mL]
1 | O=C(O)c1cn(C2CC2)c2c(Cl)c(N3CC(O)(C4CC4)C3)c(F)cc2c1=O [drawing 132] | 0.002 (≈ 0.00509 µM) | 0.03 (≈ 0.0764 µM) | 0.03 (≈ 0.0764 µM) |  |  | 
2 | O=C(O)c1cn(C2CC2)c2c(Cl)c(N3CC(O)(C4CC4)C3)c(F)cc2c1=O [drawing 135] |  |  |  | 0.5 (≈ 1.27 µM) | 0.5 (≈ 1.27 µM) | 0.03 (≈ 0.0764 µM)

Continued, values first:

Row | MIC [1] [µg/mL] | MIC [2] [µg/mL] | MIC [3] [µg/mL] | MIC [4] [µg/mL] | MIC [5] [µg/mL] | MIC [6] [µg/mL] | Structure (SMILES)
3 | 0.002 (≈ 0.00555 µM) | 0.008 (≈ 0.0222 µM) | 0.015 (≈ 0.0416 µM) |  |  |  | Cc1c(N2CC(CCO)C2)c(F)cc2c(=O)c(C(=O)O)cn(C3CC3)c12 [drawing 130]
4 |  |  |  | 0.25 (≈ 0.694 µM) | 0.25 (≈ 0.694 µM) | 0.03 (≈ 0.0832 µM) | Cc1c(N2CC(CCO)C2)c(F)cc2c(=O)c(C(=O)O)cn(C3CC3)c12 [drawing 133]
5 | 0.0004 (≈ 0.000999 µM) | 0.03 (≈ 0.0749 µM) | 0.06 (≈ 0.15 µM) |  |  |  | Cc1c(N2CC(O)(C(F)(F)F)C2)c(F)cc2c(=O)c(C(=O)O)cn(C3CC3)c12
